Experimental data taken from patent publication US8440710B2, “HSL inhibitors useful in the treatment of diabetes” (Hoffmann-La Roche Inc., priority 2009, dated 2013).

Each compound was assayed against T1, human HSL (Homo sapiens, UniProt Q05469) (assay: Human Hormone-Sensitive Lipase (HSL) enzyme inhibition assay (colorimetric, DMPT substrate)). Conditions: human full length HSL-His6, 2,3-dimercapto-1-propanol tributyrate substrate, 37° C. 20 minutes, absorbance at 405 nm; read-out: HSL hum IC50.
T1 construct: generate a full length human HSL ORF with a 3′-His6 tag; made in house; host or cells: High 5 insect cells (baculovirus, pFast-BAC)
T1 sequence (Q05469 1-1076): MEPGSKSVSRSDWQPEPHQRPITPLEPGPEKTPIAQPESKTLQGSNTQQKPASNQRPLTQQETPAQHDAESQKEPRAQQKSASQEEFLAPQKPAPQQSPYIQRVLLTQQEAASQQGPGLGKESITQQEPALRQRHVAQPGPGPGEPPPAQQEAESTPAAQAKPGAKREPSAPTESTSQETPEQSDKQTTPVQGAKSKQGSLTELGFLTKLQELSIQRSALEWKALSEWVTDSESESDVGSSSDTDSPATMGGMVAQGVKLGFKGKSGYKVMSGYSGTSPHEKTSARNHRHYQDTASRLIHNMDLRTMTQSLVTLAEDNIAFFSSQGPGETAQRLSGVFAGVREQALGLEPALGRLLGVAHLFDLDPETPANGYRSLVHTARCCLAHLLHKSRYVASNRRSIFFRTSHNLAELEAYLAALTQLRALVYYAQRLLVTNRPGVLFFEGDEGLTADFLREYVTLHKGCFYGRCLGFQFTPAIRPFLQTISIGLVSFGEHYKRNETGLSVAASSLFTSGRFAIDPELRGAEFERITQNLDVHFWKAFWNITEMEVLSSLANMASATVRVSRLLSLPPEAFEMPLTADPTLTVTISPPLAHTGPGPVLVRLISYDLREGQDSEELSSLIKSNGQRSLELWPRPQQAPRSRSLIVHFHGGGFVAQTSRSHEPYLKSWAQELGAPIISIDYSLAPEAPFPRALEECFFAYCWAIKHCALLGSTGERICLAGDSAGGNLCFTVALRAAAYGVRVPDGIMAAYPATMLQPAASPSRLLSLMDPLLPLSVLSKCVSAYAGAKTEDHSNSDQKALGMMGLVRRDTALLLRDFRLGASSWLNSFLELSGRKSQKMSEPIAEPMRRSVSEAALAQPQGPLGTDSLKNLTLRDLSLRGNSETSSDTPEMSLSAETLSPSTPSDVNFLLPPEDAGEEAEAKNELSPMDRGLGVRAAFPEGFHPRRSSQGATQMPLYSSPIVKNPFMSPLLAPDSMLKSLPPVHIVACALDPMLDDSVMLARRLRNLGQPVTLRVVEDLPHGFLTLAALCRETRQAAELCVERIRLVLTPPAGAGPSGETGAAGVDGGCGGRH
Format: biochemical
Method in brief: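 Full-length human HSL with C-terminal His6, expressed in baculovirus-infected High 5 cells and Ni-NTA purified, was added (15 ug/ml stock) to 1.5 mM DMPT in 100 mM MOPS pH 7.2, 0.2 mg/ml fatty acid-free BSA containing compound. After 20 min at 37 °C, DTNB with SDS/Triton X-100 was added; A405 read after 15 min at RT.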

Row | IC50 | SMILES
1 | 600 nM | O=C1N(c2ccc(OC(F)(F)F)cc2)CC[C@]12CC[C@](O)(Cc1ccccc1)CC2 [Example 63, (5α,8β)-8-Benzyl-8-hydroxy-2-(4-trifluoromethoxy-phenyl)-2-aza-spiro[4.5]decan-1-one]
2 | 30 nM | C=CCC[C@]1(O)CC[C@]2(CCN(c3ccc(OC(F)(F)F)cc3)C2=O)CC1 [Example 64, (5α,8α)-8-But-3-enyl-8-hydroxy-2-(4-trifluoromethoxy-phenyl)-2-aza-spiro[4.5]decan-1-one]
3 | 440 nM | C=CCC[C@]1(O)CC[C@@]2(CCN(c3ccc(OC(F)(F)F)cc3)C2=O)CC1 [Example 65, (5α,8β)-8-But-3-enyl-8-hydroxy-2-(4-trifluoromethoxy-phenyl)-2-aza-spiro[4.5]decan-1-one]
4 | 30 nM | CCCC[C@]1(O)CC[C@]2(CCN(c3ccc(OC(F)(F)F)cc3)C2=O)CC1 [Example 66, (5α,8α)-8-Butyl-8-hydroxy-2-(4-trifluoromethoxy-phenyl)-2-aza-spiro[4.5]decan-1-one]
5 | 11100 nM | CCCC[C@]1(O)CC[C@@]2(CCN(c3ccc(OC(F)(F)F)cc3)C2=O)CC1 [Example 67, (5α,8β)-8-Butyl-8-hydroxy-2-(4-trifluoromethoxy-phenyl)-2-aza-spiro[4.5]decan-1-one]
6 | 30 nM | CC(C)[C@]1(O)CC[C@]2(CCN(c3ccc(OC(F)(F)F)cc3)C2=O)CC1 [Example 68, (5α,8α)-8-Hydroxy-8-isopropyl-2-(4-trifluoromethoxy-phenyl)-2-aza-spiro[4.5]decan-1-one]
7 | 560 nM | CC(C)[C@]1(O)CC[C@@]2(CCN(c3ccc(OC(F)(F)F)cc3)C2=O)CC1 [Example 69, (5α,8β)-8-Hydroxy-8-isopropyl-2-(4-trifluoromethoxy-phenyl)-2-aza-spiro[4.5]decan-1-one]
8 | 130 nM | O=C1N(c2ccc(OC(F)(F)F)cc2)CC[C@]12CC[C@@](O)(C1CC1)CC2 [Example 70, (5α,8α)-8-Cyclopropyl-8-hydroxy-2-(4-trifluoromethoxy-phenyl)-2-aza-spiro[4.5]decan-1-one]
9 | 40 nM | COCC#C[C@]1(O)CC[C@]2(CCN(c3ccc(OC(F)(F)F)cc3)C2=O)CC1 [Example 71, (5α,8α)-8-Hydroxy-8-(3-methoxy-prop-1-ynyl)-2-(4-trifluoromethoxy-phenyl)-2-aza-spiro[4.5]decan-1-one]
10 | 710 nM | COCC#C[C@]1(O)CC[C@@]2(CCN(c3ccc(OC(F)(F)F)cc3)C2=O)CC1 [Example 72, (5α,8β)-8-Hydroxy-8-(3-methoxy-prop-1-ynyl)-2-(4-trifluoromethoxy-phenyl)-2-aza-spiro[4.5]decan-1-one]
11 | 150 nM | C[C@]1(O)CC[C@]2(CCN(c3ccc(C4CC4)cc3)C2=O)CC1 [Example 73, (5α,8α)-2-(4-Cyclopropyl-phenyl)-8-hydroxy-8-methyl-2-aza-spiro[4.5]decan-1-one]
12 | 800 nM | C[C@]1(O)CC[C@@]2(CCN(c3ccc(C4CC4)cc3)C2=O)CC1 [Example 74, (5α,8β)-2-(4-Cyclopropyl-phenyl)-8-hydroxy-8-methyl-2-aza-spiro[4.5]decan-1-one]
13 | 30 nM | CCC[C@]1(O)CC[C@]2(CCN(c3ccc(C4CC4)cc3)C2=O)CC1 [Example 75, (5α,8α)-2-(4-Cyclopropyl-phenyl)-8-hydroxy-8-propyl-2-aza-spiro[4.5]decan-1-one]
14 | 190 nM | CCC[C@]1(O)CC[C@@]2(CCN(c3ccc(C4CC4)cc3)C2=O)CC1 [Example 76, (5α,8β)-2-(4-Cyclopropyl-phenyl)-8-hydroxy-8-propyl-2-aza-spiro[4.5]decan-1-one]
15 | 50 nM | C[C@]1(O)CC[C@]2(CCN(c3ccc(CC(F)(F)F)cc3)C2=O)CC1 [Example 77, (5α,8α)-8-Hydroxy-8-methyl-2-[4-(2,2,2-trifluoro-ethyl)-phenyl]-2-aza-spiro[4.5]decan-1-one]
16 | 900 nM | C[C@]1(O)CC[C@@]2(CCN(c3ccc(CC(F)(F)F)cc3)C2=O)CC1 [Example 78, (5α,8β)-8-Hydroxy-8-methyl-2-[4-(2,2,2-trifluoro-ethyl)-phenyl]-2-aza-spiro[4.5]decan-1-one]

Row | IC50 | SMILES
17 | 30 nM | CC[C@]1(O)CC[C@]2(CCN(c3ccc(CC(F)(F)F)cc3)C2=O)CC1 [Example 79, (5α,8α)-8-Ethyl-8-hydroxy-2-[4-(2,2,2-trifluoro-ethyl)-phenyl]-2-aza-spiro[4.5]decan-1-one]
18 | 910 nM | CC[C@]1(O)CC[C@@]2(CCN(c3ccc(CC(F)(F)F)cc3)C2=O)CC1 [Example 80, (5α,8β)-8-Ethyl-8-hydroxy-2-[4-(2,2,2-trifluoro-ethyl)-phenyl]-2-aza-spiro[4.5]decan-1-one]
19 | 20 nM | CCC[C@]1(O)CC[C@]2(CCN(c3ccc(CC(F)(F)F)cc3)C2=O)CC1 [Example 81, (5α,8α)-8-Hydroxy-8-propyl-2-[4-(2,2,2-trifluoro-ethyl)-phenyl]-2-aza-spiro[4.5]decan-1-one]
20 | 460 nM | CCC[C@]1(O)CC[C@@]2(CCN(c3ccc(CC(F)(F)F)cc3)C2=O)CC1 [Example 82, (5α,8β)-8-Hydroxy-8-propyl-2-[4-(2,2,2-trifluoro-ethyl)-phenyl]-2-aza-spiro[4.5]decan-1-one]
21 | 70 nM | CCCc1ccc(N2CC[C@]3(CC[C@@](O)(CC)CC3)C2=O)cc1 [Example 83, (5α,8α)-8-Ethyl-8-hydroxy-2-(4-propyl-phenyl)-2-aza-spiro[4.5]decan-1-one]
22 | 4300 nM | CCCc1ccc(N2CC[C@]3(CC[C@](O)(CC)CC3)C2=O)cc1 [Example 84, (5α,8β)-8-Ethyl-8-hydroxy-2-(4-propyl-phenyl)-2-aza-spiro[4.5]decan-1-one]
23 | 2290 nM | O=C1N(c2ccc(OCC(F)(F)F)cc2)CC[C@]12CC[C@@H](O)CC2 [Example 85, (5α,8β)-8-Hydroxy-2-[4-(2,2,2-trifluoro-ethoxy)-phenyl]-2-aza-spiro[4.5]decan-1-one]
24 | 130 nM | C[C@]1(O)CC[C@]2(CCN(c3ccc(OCC(F)(F)F)cc3)C2=O)CC1 [Example 86, (5α,8α)-8-Hydroxy-8-methyl-2-[4-(2,2,2-trifluoro-ethoxy)-phenyl]-2-aza-spiro[4.5]decan-1-one]
25 | 3820 nM | C[C@]1(O)CC[C@@]2(CCN(c3ccc(OCC(F)(F)F)cc3)C2=O)CC1 [Example 87, (5α,8β)-8-Hydroxy-8-methyl-2-[4-(2,2,2-trifluoro-ethoxy)-phenyl]-2-aza-spiro[4.5]decan-1-one]
26 | 42 nM | CC[C@]1(O)CC[C@]2(CCN(c3ccc(OCC(F)(F)F)cc3)C2=O)CC1 [Example 88, (5α,8α)-8-Ethyl-8-hydroxy-2-[4-(2,2,2-trifluoro-ethoxy)-phenyl]-2-aza-spiro[4.5]decan-1-one]
27 | 3190 nM | CC[C@]1(O)CC[C@@]2(CCN(c3ccc(OCC(F)(F)F)cc3)C2=O)CC1 [Example 89, (5α,8β)-8-Ethyl-8-hydroxy-2-[4-(2,2,2-trifluoro-ethoxy)-phenyl]-2-aza-spiro[4.5]decan-1-one]
28 | 23 nM | COCCC[C@]1(O)CC[C@]2(CCN(c3ccc(OC(F)(F)F)cc3)C2=O)CC1 [Example 90, (5α,8α)-8-Hydroxy-8-(3-methoxy-propyl)-2-(4-trifluoromethoxy-phenyl)-2-aza-spiro[4.5]decan-1-one]
29 | 896 nM | COCCC[C@]1(O)CC[C@@]2(CCN(c3ccc(OC(F)(F)F)cc3)C2=O)CC1 [Example 91, (5α,8β)-8-Hydroxy-8-(3-methoxy-propyl)-2-(4-trifluoromethoxy-phenyl)-2-aza-spiro[4.5]decan-1-one]
30 | 30 nM | COCC#C[C@]1(O)CC[C@]2(CCN(c3ccc(CC(F)(F)F)cc3)C2=O)CC1 [Example 92, (5α,8α)-8-Hydroxy-8-(3-methoxy-prop-1-ynyl)-2-[4-(2,2,2-trifluoro-ethyl)-phenyl]-2-aza-spiro[4.5]decan-1-one]
31 | 20 nM | COCCC[C@]1(O)CC[C@]2(CCN(c3ccc(CC(F)(F)F)cc3)C2=O)CC1 [Example 93, (5α,8α)-8-Hydroxy-8-(3-methoxy-propyl)-2-[4-(2,2,2-trifluoro-ethyl)-phenyl]-2-aza-spiro[4.5]decan-1-one]
